Test results as given in the NIST ThermoML archive (doi:10.1016/j.fluid.2012.01.014).
Numbers after ± are expanded uncertainties.

What was measured:
[1] = Ring tensiometer
[2] = cn = amount concentration of the nth substance listed, in mol/dm3; settings: Ring tensiometer

O [water]
[1]
Settings | surface tension liquid-gas [mN/m]
293 K | 72.8 ± 1.3
303 K | 71.2 ± 1.3
313 K | 69.6 ± 1.3

O [water] + CCCCCCCCCCCCN(C)CC(=O)[O-].[Na+]
[2], c2 = 0
Settings | surface tension liquid-gas [mN/m]
293 K | 72.8 ± 1.3
303 K | 71.2 ± 1.3
313 K | 69.6 ± 1.3

CCCCCCCCCCCCN(C)CC(=O)[O-].[Na+] [sodium laurylsarcosinate] + O
surface tension liquid-gas [mN/m], [2]
Settings | 293 K | 303 K | 313 K
c1 = 1e-07 | 72.4 ± 1.3 | 71.19 ± 1.3 | 69.59 ± 1.3
c1 = 5.01e-07 | 72.2 ± 1.3 | 71.15 ± 1.3 | 69.56 ± 1.3
c1 = 1e-06 | 72 ± 1.3 | 71.1 ± 1.3 | 69.52 ± 1.3
c1 = 5.01e-06 | 71.6 ± 1.3 | 70.72 ± 1.3 | 69.2 ± 1.3
c1 = 1e-05 | 71.4 ± 1.3 | 70.28 ± 1.3 | 68.83 ± 1.3
c1 = 5.01e-05 | 69 ± 1.3 | 67.57 ± 1.3 | 66.49 ± 1.3
c1 = 0.0001 | 65.5 ± 1.3 | 65.33 ± 1.3 | 64.45 ± 1.2
c1 = 0.000501 | 48.6 ± 1.2 | 48.46 ± 1.2 | 48.32 ± 1.2
c1 = 0.000631 | 46.3 ± 1.1 | 46.1 ± 1.1 | 46 ± 1.1
c1 = 0.000708 | 44.9 ± 1.1 | 44.03 ± 1.1 | 43.82 ± 1.1
c1 = 0.000794 | 43.6 ± 1.1 | 42.91 ± 1.1 | 42.71 ± 1.1
c1 = 0.000891 | 42.3 ± 1.1 | 41.85 ± 1.1 | 41.15 ± 1.1
c1 = 0.001 | 41.1 ± 1.1 | 40.33 ± 1.1 | 39.51 ± 1.1
c1 = 0.002 | 32.9 ± 1.1 | 32.39 ± 1.1 | 31.83 ± 1.1
c1 = 0.00316 | 28.3 ± 1.1 | 28 ± 1.1 | 27.5 ± 1.1
c1 = 0.00398 | 26.9 ± 1.1 | 26.65 ± 1.1 | 26.12 ± 1.1
c1 = 0.00501 | 26.5 ± 1.1 | 26.45 ± 1.1 | 25.48 ± 1.1
c1 = 0.01 | 26.5 ± 1.1 | 26.45 ± 1.1 | 25.42 ± 1.1

O [water] + CCCCCCCCCCCCCCCCS(=O)(=O)[O-].[Na+]
[2], c2 = 0
Settings | surface tension liquid-gas [mN/m]
293 K | 72.8 ± 1.3
303 K | 71.2 ± 1.3
313 K | 69.6 ± 1.3
